# Measurements taken from patent publication US20260217701A1, “SELECTIVE BET INHIBITORS AND USES THEREOF” (Tay Therapeutics Limited, priority 2022, published 2026).
# How the values were obtained:
# BRD4 BD2 = biological target: T1, BRD4 BD2 (Homo sapiens, UniProt O60885); assay: NanoBRET bromodomain assay, NanoLuc-BRD4-BD2 in HEK293 cells; format: binding; settings: for Fold Selectivity BRD4 BD1/BD2: IC50 BD1/IC50 BD2, qualitative if an IC50 is at the upper limit
# T1 construct: HEK293 cells were transfected using NanoLuc-BRD4-BD1 or NanoLuc-BRD4-BD2 fusion vectors
# Procedure: (§1) Plates were then incubated at 37° C.+5% CO2 incubator for 2 hours.
# (§2) Fold Selectivity Calculated (IC50 BD1/IC50 BD2).
# BRD4 BD1 = biological target: T2, BRD4 BD1 (Homo sapiens, UniProt O60885); assay: NanoBRET bromodomain assay, NanoLuc-BRD4-BD1 in HEK293 cells; format: binding
# T2 construct: HEK293 cells were transfected using NanoLuc-BRD4-BD1 or NanoLuc-BRD4-BD2 fusion vectors
# Procedure: Exemplary compounds of the disclosure are active against BRD4 BD2 and selective over BRD4 BD1. BRD4 is a representative example of the BET family, as the binding sites of all BET family members are structurally similar. […] IC50s and fold selectivity's are determined as described below and are represented in Table 1.
# as §1, §2
SMILES,IC50 (BRD4 BD2),Fold Selectivity BRD4 BD1/BD2 (BRD4 BD2),IC50 (BRD4 BD1)
"Cc1cccc(C)c1Oc1cn(C)c(=O)cc1-c1cn(C)c(=O)c2[nH]c(-c3cn(CC(F)(F)F)nc3C)cc12 [Example 15, 4-(5-(2,6-dimethylphenoxy)-1-methyl-2-oxo-1,2-dihydropyridin-4-yl)-6-methyl-2-(3-methyl-1-(2,2,2-trifluoroethyl)-1H-pyrazol-4-yl)-1,6-dihydro-7H-pyrrolo[2,3-c]pyridin-7-one]",10 to 50 nM,xx (Fold >50 and ≤200),500 to 1000 nM
"Cn1cc(-c2cc(=O)n(C3COC3)cc2-c2ccccc2)c2cc(-c3cnn(C(F)(F)F)c3)[nH]c2c1=O [Example 5, 6-methyl-4-(1-(oxetan-3-yl)-2-oxo-5-phenyl-1,2-dihydropyridin-4-yl)-2-(1-(trifluoromethyl)-1H-pyrazol-4-yl)-1,6-dihydro-7H-pyrrolo[2,3-c]pyridin-7-one]",10 to 50 nM,xxx (Fold >200 and ≤1000),> 1000 nM
Cc1cccc(C)c1Oc1cn(C)c(=O)cc1-c1cn(C)c(=O)c2[nH]c(-c3cccc(C(F)F)c3F)cc12 [Example 95],50 to 200 nM,xx (Fold >50 and ≤200),> 1000 nM
Cn1cc(-c2ccccc2C(F)F)c(-c2cn(C)c(=O)c3[nH]c(-c4ccc(F)cc4F)cc23)cc1=O [Example 70],200 to 1000 nM,x (Fold >2 and ≤50),> 1000 nM
Cn1cc(-c2cccc(OCCO)c2)c(-c2cn(C)c(=O)c3[nH]c(-c4ccc(F)cc4F)cc23)cc1=O [Example 76],10 to 50 nM,xxx (Fold >200 and ≤1000),> 1000 nM
"Cc1cccc(C)c1Oc1cn(C2CC2)c(=O)cc1-c1cn(C)c(=O)c2[nH]c(-c3ccc(F)cc3F)cc12 [Example 39, 4-(1-cyclopropyl-5-(2,6-dimethylphenoxy)-2-oxo-1,2-dihydropyridin-4-yl)-2-(2,4-difluorophenyl)-6-methyl-1,6-dihydro-7H-pyrrolo[2,3-c]pyridin-7-one]",< 10 nM,xxxx (Fold >1000),> 1000 nM
"Cn1cc(-c2ccccc2)c(-c2cn(C)c(=O)c3[nH]c(-c4ccc(S(C)(=O)=O)cc4)cc23)cc1=O [Example 45, 6-methyl-4-(1-methyl-2-oxo-5-phenyl-1,2-dihydropyridin-4-yl)-2-(4-(methylsulfonyl)phenyl)-1,6-dihydro-7H-pyrrolo[2,3-c]pyridin-7-one]",< 10 nM,xxxx (Fold >1000),> 1000 nM
"Cn1cc(-c2cc(=O)n(C3CC(O)C3)cc2-c2ccccc2)c2cc(-c3cnn(C(F)(F)F)c3)[nH]c2c1=O (stereo not drawn) [Example 64, 4-(1-(3-hydroxycyclobutyl)-2-oxo-5-phenyl-1,2-dihydropyridin-4-yl)-6-methyl-2-(1-(trifluoromethyl)-1H-pyrazol-4-yl)-1,6-dihydro-7H-pyrrolo[2,3-c]pyridin-7-one]",50 to 200 nM,x (Fold >2 and ≤50),500 to 1000 nM
Cn1cc(-c2ccccc2)c(-c2cn(C)c(=O)c3[nH]c(-c4cccnc4)cc23)cc1=O [Example 80],< 10 nM,xx (Fold >50 and ≤200),50 to 500 nM
"Cn1cc(-c2c(-c3ccccc3)cn(CCO)c(=O)c2C(F)(F)F)c2cc(-c3cnn(C(F)(F)F)c3)[nH]c2c1=O [Example 68, 4-(1-(2-hydroxyethyl)-2-oxo-5-phenyl-3-(trifluoromethyl)-1,2-dihydropyridin-4-yl)-6-methyl-2-(1-(trifluoromethyl)-1H-pyrazol-4-yl)-1,6-dihydro-7H-pyrrolo[2,3-c]pyridin-7-one]",200 to 1000 nM,x (Fold >2 and ≤50),> 1000 nM
Cn1cc(-c2ccccc2)c(-c2cn(C)c(=O)c3[nH]c(-c4cccc(C5COC5)c4)cc23)cc1=O [Example 84],< 10 nM,xx (Fold >50 and ≤200),50 to 500 nM
"CN1CCC(n2cc(-c3ccccc3)c(-c3cn(C)c(=O)c4[nH]c(-c5cnn(C(F)(F)F)c5)cc34)cc2=O)CC1 [Example 63, 6-methyl-4-(1-(1-methylpiperidin-4-yl)-2-oxo-5-phenyl-1,2-dihydropyridin-4-yl)-2-(1-(trifluoromethyl)-1H-pyrazol-4-yl)-1,6-dihydro-7H-pyrrolo[2,3-c]pyridin-7-one]",< 10 nM,xx (Fold >50 and ≤200),500 to 1000 nM
"Cc1cccc(C)c1Oc1cn(C)c(=O)cc1-c1cn(C)c(=O)c2[nH]c(-c3cnn(CC(F)(F)F)c3)cc12 [Example 13, 4-(5-(2,6-dimethylphenoxy)-1-methyl-2-oxo-1,2-dihydropyridin-4-yl)-6-methyl-2-(1-(2,2,2-trifluoroethyl)-1H-pyrazol-4-yl)-1,6-dihydro-7H-pyrrolo[2,3-c]pyridin-7-one]",10 to 50 nM,xxx (Fold >200 and ≤1000),> 1000 nM
"COc1ccc(-c2cn(C)c(=O)cc2-c2cn(C)c(=O)c3[nH]c(-c4cc(C)nc(C)c4)cc23)cc1.Cl [Example 31, 2-(2,6-dimethylpyridin-4-yl)-4-(5-(4-methoxyphenyl)-1-methyl-2-ox0-1,2-dihydropyridin-4-yl)-6-methyl-1,6-dihydro-7H-pyrrolo[2,3-c]pyridin-7-one hydrogen chloride]",< 10 nM,xxx (Fold >200 and ≤1000),500 to 1000 nM
"CN(C)CCn1cc(-c2ccccc2)c(-c2cn(C)c(=O)c3[nH]c(-c4cnn(C(F)(F)F)c4)cc23)cc1=O.O=CO [Example 61, 4-(1-(2-(dimethylamino)ethyl)-2-oxo-5-phenyl-1,2-dihydropyridin-4-yl)-6-methyl-2-(1-(trifluoromethyl)-1H-pyrazol-4-yl)-1,6-dihydro-7H-pyrrolo[2,3-c]pyridin-7-one formate]",< 10 nM,x (Fold >2 and ≤50),50 to 500 nM
"Cn1cc(-c2cc(=O)n(CCOC(F)(F)F)cc2-c2ccccc2)c2cc(-c3cnn(C(F)(F)F)c3)[nH]c2c1=O [Example 59, 6-methyl-4-(2-oxo-5-phenyl-1-(2-(trifluoromethoxy)ethyl)-1,2-dihydropyridin-4-yl)-2-(1-(trifluoromethyl)-1H-pyrazol-4-yl)-1,6-dihydro-7H-pyrrolo[2,3-c]pyridin-7-one]",50 to 200 nM,xx (Fold >50 and ≤200),> 1000 nM
"CSCc1ccc(-c2cn(C)c(=O)cc2-c2cn(C)c(=O)c3[nH]c(-c4cnn(C(F)(F)F)c4)cc23)cc1 [Example 24, 6-methyl-4-(1-methyl-5-(4-((methylthio)methyl)phenyl)-2-oxo-1,2-dihydropyridin-4-yl)-2-(1-(trifluoromethyl)-1H-pyrazol-4-yl)-1,6-dihydro-7H-pyrrolo[2,3-c]pyridin-7-one]",< 10 nM,xxxx (Fold >1000),> 1000 nM
"COc1cccc(-c2cc3c(-c4cc(=O)n(C)cc4Oc4c(C)cccc4C)cn(C)c(=O)c3[nH]2)c1F [Example 56, 4-(5-(2,6-dimethylphenoxy)-1-methyl-2-oxo-1,2-dihydropyridin-4-yl)-2-(2-fluoro-3-methoxyphenyl)-6-methyl-1,6-dihydro-7H-pyrrolo[2,3-c]pyridin-7-one]",< 10 nM,xxxx (Fold >1000),> 1000 nM
"Cc1cccc(C)c1Oc1cn(C)c(=O)cc1-c1cn(C)c(=O)c2[nH]c(-c3cnn(CC(F)(F)F)c3C)cc12 [Example 16, 4-(5-(2,6-dimethylphenoxy)-1-methyl-2-oxo-1,2-dihydropyridin-4-yl)-6-methyl-2-(5-methyl-1-(2,2,2-trifluoroethyl)-1H-pyrazol-4-yl)-1,6-dihydro-7H-pyrrolo[2,3-c]pyridin-7-one]",< 10 nM,xx (Fold >50 and ≤200),> 1000 nM
Cc1cc(-c2cc3c(-c4cc(=O)n(C)cc4-c4cccc(S(C)(=O)=O)c4)cn(C)c(=O)c3[nH]2)cc(C)n1 [Example 89],50 to 200 nM,xx (Fold >50 and ≤200),> 1000 nM
"CC(C)n1cc(-c2[nH]c3c(=O)n(C)cc(-c4cc(=O)n(C)cc4-c4ccccc4)c3c2F)cn1 [Example 65, 4-[3-fluoro-2-(1-isopropylpyrazol-4-yl)-6-methyl-7-oxo-1H-pyrrolo[2,3-c]pyridin-4-yl]-1-methyl-5-phenylpyridin-2-one]",10 to 50 nM,xxx (Fold >200 and ≤1000),> 1000 nM
Cn1cc(-c2ccccc2Cl)c(-c2cn(C)c(=O)c3[nH]c(-c4ccc(F)cc4F)cc23)cc1=O [Example 79],10 to 50 nM,xxx (Fold >200 and ≤1000),> 1000 nM
"Cn1cc(-c2ccccc2)c(-c2cn(C)c(=O)c3[nH]c(-c4cnn(C(F)(F)F)c4)c(F)c23)cc1=O [Example 21, 3-fluoro-6-methyl-4-(1-methyl-2-oxo-5-phenyl-1,2-dihydropyridin-4-yl)-2-(1-(trifluoromethyl)-1H-pyrazol-4-yl)-1,6-dihydro-7H-pyrrolo[2,3-c]pyridin-7-one]",< 10 nM,xxxx (Fold >1000),> 1000 nM
"Cn1cc(-c2ccccc2)c(-c2cn(C)c(=O)c3[nH]c(-c4ccc(F)cc4F)cc23)cc1=O [Example 43, 2-(2,4-difluorophenyl)-6-methyl-4-(1-methyl-2-oxo-5-phenyl-1,2-dihydropyridin-4-yl)-1,6-dihydro-7H-pyrrolo[2,3-c]pyridin-7-one]",< 10 nM,xxxx (Fold >1000),> 1000 nM
